Test results reported in US12227496B2 (BRISTOL-MYERS SQUIBB COMPANY, priority 2019, dated 2025).

Target: T1, human FXR (Homo sapiens, UniProt Q96RI1)
T1 construct: expressed in transfected cells; host or cells: HEK293 cells stably carrying a 5xGal4-response-element firefly luciferase reporter, transiently transfected with pcDNA3.1-Gal4-FXR
T1 sequence (Q96RI1 262-486 limits assumed): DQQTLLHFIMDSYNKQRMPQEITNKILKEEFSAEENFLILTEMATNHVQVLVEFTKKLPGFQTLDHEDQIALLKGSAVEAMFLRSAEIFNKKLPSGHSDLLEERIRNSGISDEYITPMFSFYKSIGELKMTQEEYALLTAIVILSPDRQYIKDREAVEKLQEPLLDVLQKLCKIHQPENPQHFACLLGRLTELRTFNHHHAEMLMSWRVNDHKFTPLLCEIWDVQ
Assay: transient human FXR/Gal4-luciferase reporter assay
Type: cell-based
Conditions: Gal4-hFXR LBD fusion, luciferase reporter in HEK293 cells; response relative to 8 μM GW-4064
In short: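 HEK293 cells stably carrying a 5×Gal4-response-element firefly luciferase reporter were transiently transfected with Gal4-hFXR. They were then incubated overnight at 37 °C with compound serial dilutions in medium containing 10% charcoal/dextran-stripped FBS. Luminescence was read after Steady-Glo addition.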

COc1cc(-c2cccc(N(CC34CCC(C#N)(CC3)CC4)C(=O)C3CCCCC3)c2)ccn1 [Example 99, N-((4-cyanobicyclo[2.2.2]octan-1-yl)methyl)-N-(3-(2-methoxypyridin-4-yl)phenyl)cyclohexanecarboxamide]
EC50: 1530 nM

CCOc1ccnc(-c2cccc(N(CC34CCC(c5nc(C6CC6)no5)(CC3)CC4)C(=O)C3CCCCC3)c2)c1 [Example 77, N-((4-(3-cyclopropyl-1,2,4-oxadiazol-5-yl)bicyclo[2.2.2]octan-1-yl)methyl)-N-(3-(4-ethoxypyridin-2-yl)phenyl)cyclohexane carboxamide]
EC50: 268 nM

CC(C)(O)c1nc(-c2cccc(N(CC34CCC(c5nc(C6CC6)no5)(CC3)CC4)C(=O)C3CCCCC3)c2)cs1 [Example 32, N-((4-(3-cyclopropyl-1,2,4-oxadiazol-5-yl)bicyclo[2.2.2]octan-1-yl)methyl)-N-(3-(2-(2-hydroxypropan-2-yl)thiazol-4-yl)phenyl)cyclohexanecarboxamide]
EC50: 320 nM

CC(F)(F)c1nc(C23CCC(CN(C(=O)C4CCC(F)(F)CC4)c4cccc(-c5ccc(S(C)(=O)=O)cc5)c4)(CC2)CC3)no1 [Example 130, N-((4-(5-(1,1-difluoroethyl)-1,2,4-oxadiazol-3-yl)bicyclo[2.2.2]octan-1-yl)methyl)-4,4-difluoro-N-(4′-(methylsulfonyl)-[1,1′-biphenyl]-3-yl)cyclohexane-1-carboxamide]
EC50: 205 nM

CC(C)(C)c1noc(C23CCC(CN(C(=O)C4CCOCC4)c4cccc(-c5cc(C6CC6)on5)c4)(CC2)CC3)n1 [Example 161, N-((4-(3-(tert-butyl)-1,2,4-oxadiazol-5-yl)bicyclo[2.2.2]octan-1-yl)methyl)-N-(3-(5-cyclopropylisoxazol-3-yl)phenyl)tetrahydro-2H-pyran-4-carboxamide]
EC50: 77 nM

CC(C)(C)c1nc(C23CCC(CN(C(=O)C4CCS(=O)(=O)CC4)c4cccc(-c5nc(C6CC6)no5)c4)(CC2)CC3)no1 [Example 117, N-((4-(5-(tert-butyl)-1,2,4-oxadiazol-3-yl)bicyclo[2.2.2]octan-1-yl)methyl)-N-(3-(3-cyclopropyl-1,2,4-oxadiazol-5-yl)phenyl)tetrahydro-2H-thiopyran-4-carboxamide 1,1-dioxide]
EC50: 729 nM

COc1cccc(-c2cccc(N(CC34CCC(c5nc(C6CC6)no5)(CC3)CC4)C(=O)C3CCCCC3)c2)c1 [Example 74, N-((4-(3-cyclopropyl-1,2,4-oxadiazol-5-yl)bicyclo[2.2.2]octan-1-yl)methyl)-N-(3′-methoxy-[1,1′-biphenyl]-3-yl)cyclohexanecarboxamide]
EC50: 151 nM

O=C(C1CCC(F)(F)CC1)N(CC12CCC(c3noc(C4CC(O)(C(F)(F)F)C4)n3)(CC1)CC2)c1cccc(-c2cnc(C3CC3)nc2)c1 (stereo not drawn) [Example 120, N-(3-(2-cyclopropylpyrimidin-5-yl)phenyl)-4,4-difluoro-N-((4-(5-(3-hydroxy-3-(trifluoromethyl)cyclobutyl)-1,2,4-oxadiazol-3-yl)bicyclo[2.2.2]octan-1-yl)methyl)cyclohexane-1-carboxamide]
EC50: 2000 nM

Cn1nc(C2CC2)cc1C12CCC(CN(C(=O)C3CCOCC3)c3cccc(-c4cc(C5CC5)on4)c3)(CC1)CC2 [Example 132, N-((4-(3-cyclopropyl-1-methyl-1H-pyrazol-5-yl)bicyclo[2.2.2]octan-1-yl)methyl)-N-(3-(5-cyclopropylisoxazol-3-yl)phenyl)tetrahydro-2H-pyran-4-carboxamide]
EC50: 227 nM

COc1cc(-c2cccc(N(CC34CCC(c5nnc(C)s5)(CC3)CC4)C(=O)C3CCCCC3)c2)ccn1 [Example 80, N-(3-(2-methoxypyridin-4-yl)phenyl)-N-((4-(5-methyl-1,3,4-thiadiazol-2-yl)bicyclo[2.2.2]octan-1-yl)methyl)cyclohexanecarboxamide]
EC50: 532 nM

CC(F)(F)c1nc(C23CCC(CN(C(=O)C4CCOCC4)c4cccc(-c5cn[nH]c(=O)c5)c4)(CC2)CC3)no1 [Example 129, N-((4-(5-(1,1-difluoroethyl)-1,2,4-oxadiazol-3-yl)bicyclo[2.2.2]octan-1-yl)methyl)-N-(3-(6-oxo-1,6-dihydropyridazin-4-yl)phenyl)tetrahydro-2H-pyran-4-carboxamide]
EC50: 1480 nM

CC(F)(F)c1nc(C23CCC(CN(C(=O)C4CCS(=O)(=O)CC4)c4cccc(-c5cc(C6CC6)on5)c4)(CC2)CC3)no1 [Example 155, N-(3-(5-cyclopropylisoxazol-3-yl)phenyl)-N-((4-(5-(1,1-difluoroethyl)-1,2,4-oxadiazol-3-yl)bicyclo[2.2.2]octan-1-yl)methyl)tetrahydro-2H-thiopyran-4-carboxamide 1,1-dioxide]
EC50: 289 nM

COc1ncc(-c2cccc(N(CC34CCC(c5nc(C6CC6)no5)(CC3)CC4)C(=O)C3CCCCC3)c2)o1 [Example 7, N-((4-(3-cyclopropyl-1,2,4-oxadiazol-5-yl)bicyclo[2.2.2]octan-1-yl)methyl)-N-(3-(2-methoxyoxazol-5-yl)phenyl)cyclohexanecarboxamide]
EC50: 51 nM

CCOc1ncc(-c2cccc(N(CC34CCC(c5nc(C6CC6)no5)(CC3)CC4)C(=O)C3CCC(F)(F)CC3)c2)o1 [Example 9, N-((4-(3-cyclopropyl-1,2,4-oxadiazol-5-yl)bicyclo[2.2.2]octan-1-yl)methyl)-N-(3-(2-ethoxyoxazol-5-yl)phenyl)-4,4-difluorocyclohexane-1-carboxamide]
EC50: 142 nM

CC(F)(F)c1nc(C23CCC(CN(C(=O)C4CCOCC4)c4cccc(-c5ccc(OC(F)F)cc5)c4)(CC2)CC3)no1 [Example 109, N-((4-(5-(1,1-difluoroethyl)-1,2,4-oxadiazol-3-yl)bicyclo[2.2.2]octan-1-yl)methyl)-N-(4′-(difluoromethoxy)-[1,1′-biphenyl]-3-yl)tetrahydro-2H-pyran-4-carboxamide]
EC50: 50 nM

Cn1nc(C2CC2)cc1C12CCC(CN(C(=O)C3CCS(=O)(=O)CC3)c3cccc(-c4cc(C5CC5)no4)c3)(CC1)CC2 [Example 138, N-((4-(3-cyclopropyl-1-methyl-1H-pyrazol-5-yl)bicyclo[2.2.2]octan-1-yl)methyl)-N-(3-(3-cyclopropylisoxazol-5-yl)phenyl)tetrahydro-2H-thiopyran-4-carboxamide 1,1-dioxide]
EC50: 1580 nM

CC(C)(C)c1nc(C23CCC(CN(C(=O)C4CCC(F)(F)CC4)c4cccc(-c5cc(C6CC6)on5)c4)(CC2)CC3)no1 [Example 162, N-((4-(5-(tert-butyl)-1,2,4-oxadiazol-3-yl)bicyclo[2.2.2]octan-1-yl)methyl)-N-(3-(5-cyclopropylisoxazol-3-yl)phenyl)-4,4-difluorocyclohexane-1-carboxamide]
EC50: 41 nM

CC(C)(C)c1noc(C23CCC(CN(C(=O)C4CCC(F)(F)CC4)c4cccc(-c5nc(C6CC6)no5)c4)(CC2)CC3)n1 [Example 103, N-((4-(3-(tert-butyl)-1,2,4-oxadiazol-5-yl)bicyclo[2.2.2]octan-1-yl)methyl)-N-(3-(3-cyclopropyl-1,2,4-oxadiazol-5-yl)phenyl)-4,4-difluorocyclohexane-1-carboxamide]
EC50: 250 nM

O=C(C1CCOCC1)N(CC12CCC(c3nc(C4CC4)no3)(CC1)CC2)c1cccc(-c2ccnc(OC3CC3)n2)c1 [Example 86, N-(3-(2-cyclopropoxypyrimidin-4-yl)phenyl)-N-((4-(3-cyclopropyl-1,2,4-oxadiazol-5-yl)bicyclo[2.2.2]octan-1-yl)methyl)tetrahydro-2H-pyran-4-carboxamide]
EC50: 2470 nM

CC1CN(C(=O)N(CC23CCC(c4nc(C5CC5)no4)(CC2)CC3)c2cccc(-c3nc(C4CC4)no3)c2)CC(C)O1 (stereo not drawn) [Example 63, N-((4-(3-cyclopropyl-1,2,4-oxadiazol-5-yl)bicyclo[2.2.2]octan-1-yl)methyl)-N-(3-(3-cyclopropyl-1,2,4-oxadiazol-5-yl)phenyl)-2,6-dimethylmorpholine-4-carboxamide]
EC50: 1130 nM

CC1CCN(C(=O)N(CC23CCC(c4nc(C5CC5)no4)(CC2)CC3)c2cccc(-c3nc(C4CC4)no3)c2)CC1 [Example 60, N-((4-(3-cyclopropyl-1,2,4-oxadiazol-5-yl)bicyclo[2.2.2]octan-1-yl)methyl)-N-(3-(3-cyclopropyl-1,2,4-oxadiazol-5-yl)phenyl)-4-methylpiperidine-1-carboxamide]
EC50: 1020 nM

CC(C)(C)c1nc(C23CCC(CN(C(=O)C4CCOCC4)c4cccc(-c5nc(C6CC6)no5)c4)(CC2)CC3)no1 [Example 116, N-((4-(5-(tert-butyl)-1,2,4-oxadiazol-3-yl)bicyclo[2.2.2]octan-1-yl)methyl)-N-(3-(3-cyclopropyl-1,2,4-oxadiazol-5-yl)phenyl)tetrahydro-2H-pyran-4-carboxamide]
EC50: 61 nM

CC(C)(C)c1nc(C23CCC(CN(C(=O)C4CCC(F)(F)CC4)c4cccc(-c5cc(C6CC6)no5)c4)(CC2)CC3)no1 [Example 148, N-((4-(5-(tert-butyl)-1,2,4-oxadiazol-3-yl)bicyclo[2.2.2]octan-1-yl)methyl)-N-(3-(3-cyclopropylisoxazol-5-yl)phenyl)-4,4-difluorocyclohexane-1-carboxamide]
EC50: 107 nM

COc1cc(-c2cccc(N(CC34CCC(c5nc(C6CC6)no5)(CC3)CC4)C(=O)C3CCCCC3)c2)no1 [Example 12, N-((4-(3-cyclopropyl-1,2,4-oxadiazol-5-yl)bicyclo[2.2.2]octan-1-yl)methyl)-N-(3-(5-methoxyisoxazol-3-yl)phenyl)cyclohexanecarboxamide]
EC50: 129 nM
